Experimental data as given in patent US20230058623A1, “NOVEL HETEROARYL-TRIAZOLE COMPOUNDS AS PESTICIDES” (Bayer Aktiengesellschaft, priority 2019, published 2023).

Experiments:
Assay type in all cases: in vivo
[1] = test system: fall armyworm larvae (Spodoptera frugiperda); test: Spodoptera frugiperda spray test; conditions: 168 h, application rate 100 g/ha, after 7 days, maize leaf sections
Outline: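 Maize leaf sections were sprayed with compound formulated in solvent and diluted in water containing 1000 ppm emulsifier, then infested with fall armyworm larvae after drying. Percent mortality was scored after 7 days (100% = all caterpillars dead, 0% = none).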

[2] = test system: adult brown dog ticks (Rhipicephalus sanguineus); test: Rhipicephalus sanguineus in-vitro contact test, adult brown dog ticks; conditions: application rate 5 μg/cm^2 (=500 g/ha), after 48 hours, read-out: activity (efficacy: ticks dead or moribund)
Method: Rhipicephalus sanguineus—In-Vitro Contact Tests with Adult Brown Dog Ticks
9 mg compound is solved in 1 mL acetone and diluted with acetone to the desired concentration. 250 μL of the test solution is filled in 25 mL glass test tubes and homogeneously distributed on the inner walls by rotation and tilting on a shaking device (2 h at 30 rpm). With a compound concentration of 900 ppm, an inner surface of 44.7 cm^2 and a homogeneous distribution, a dose of 5 μg/cm^2 is achieved.
After the solvent has evaporated, each test tube is filled with 5-10 adult brown dog ticks (Rhipicephalus sanguineus), closed with a perforated lid and incubated in a lying position at room temperature and relative humidity. After 48 hours efficacy is determined. The ticks are patted on the ground of the tubes and are incubated on a heating plate at 45-50° C. for at most 5 minutes. Immotile or uncoordinated moving ticks, which are not able to escape the heat by climbing upwards, are marked as dead or moribund.
An efficacy of 100% means all ticks are dead or moribund; 0% means no ticks are dead or moribund.

[3] = test system: green peach aphid (Myzus persicae); test: Myzus persicae oral test; conditions: 120 h, read-out: activity (mortality)
Outline: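 Oral uptake format: water-diluted acetone concentrate of compound is blended into IPL41 medium carrying 33%+15% sugar and offered under a parafilm membrane. Percentage of dead insects is recorded after 5 days.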

[4] = test system: adult engorged female ticks (Rhipicephalus microplus); test: Rhipicephalus (Boophilus) microplus injection test; conditions: 168 h, application rate 4 μg/tick, egg deposition after 7 days, read-out: activity (efficacy: infertile eggs)
Method: Rhipicephalus (Boophilus) microplus—Injection Test
Solvent: dimethyl sulfoxide
To produce a suitable preparation of active compound, 10 mg of active compound are dissolved in 0.5 mL solvent, and the concentrate is diluted with solvent to the desired concentration.
Five adult engorged female ticks (Rhipicephalus microplus) are injected with 1 μL compound solution into the abdomen. The ticks are transferred into replica plates and incubated in a climate chamber.
After 7 days egg deposition of fertile eggs is monitored. Eggs where fertility is not visible are stored in a climate chamber till hatching after about 42 days. An efficacy of 100% means all eggs are infertile; 0% means all eggs are fertile.

[5] = test system: adult cat fleas (Ctenocephalides felis); test: Ctenocephalides felis in-vitro contact test, adult cat flea; conditions: application rate 5 μg/cm^2 (=500 g/ha), after 48 hours, read-out: activity (efficacy: fleas dead or moribund)
Outline: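 Acetone solutions of compound were coated onto inner walls of glass tubes (900 ppm giving 5 μg/cm^2) and dried; 5-10 adult C. felis were then held 48 h at room temperature. Efficacy = % fleas dead or moribund, judged by inability to escape a 45-50° C heating plate within 5 min.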

[6] = test system: adult mosquitoes Aedes aegypti strain MONHEIM; test: Aedes aegypti test (AEDSAE surface treatment & contact assay); conditions: surface concentration 20 mg/m^2, exposure 30 minutes, 24 hours after contact, read-out: efficacy (mortality)
Method: Aedes aegypti Test (AEDSAE Surface Treatment & Contact Assay)
(§1) Solvent: Aceton+2000 ppm rapeseed oil methyl ester (RME)
(§2) In order to produce a sufficient, active ingredient containing solution it is necessary to solve the test compound in the solvent-mix (acetone at 2 mg/ml/RME 2000 ppm). This solution is pipetted onto a glazed tile and after evaporation of the acetone, adult mosquitoes of the species Aedes aegypti strain MONHEIM are placed onto the dried surface. The exposure time is 30 minutes.
(§3) Mortality in percent (%) is determined 24 hours after contact of the insects to the treated surface. 100% mortality means that all tested insects are dead, whereas 0% means that no insect died.

[7] = test system: Rhipicephalus (Boophilus) microplus larvae (strain Parkhurst, resistant against synthetic pyrethroids); test: Rhipicephalus (Boophilus) microplus in-vitro contact test, larval cattle tick; conditions: after 48 hours, read-out: activity (efficacy: larvae dead or moribund); for pest or weed control at 1 µg/cm2, 100 g/ha: application rate 1 μg/cm^2 (=100 g/ha); for pest or weed control at 5 µg/cm2, 500 g/ha: application rate 5 μg/cm^2 (=500 g/ha)
Outline: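 Acetone solutions were coated onto glass tube walls, giving 5 μg/cm^2 at 900 ppm. Once dry, 20–50 pyrethroid-resistant Parkhurst larvae were added per tube and held 48 h at 27 °C and 85% RH. Efficacy was scored by negative geotaxis as the percentage of dead or moribund larvae.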

[8] = test system: larvae of the southern green stink bug (Nezara viridula); test: Nezara viridula spray test; conditions: 96 h, after 4 days, barley plants; for mortality at 100 g/ha: application rate 100 g/ha; for mortality at 500 g/ha: application rate 500 g/ha, read-out: activity (mortality)
Method: Nezara viridula—Spray Test
(§4) To produce a suitable preparation of active compound, 1 part by weight of active compound is mixed with the stated amount of solvent, and the concentrate is diluted with water, containing an emulsifier concentration of 1000 ppm, to the desired concentration. Further test concentrations are prepared by dilution with emulsifier containing water.
Barley plants (Hordeum vulgare) are sprayed with a test solution containing the desired concentration of the active ingredient and are infested with larvae of the southern green stink bug (Nezara viridula).
After 4 days mortality in % is determined. 100% means all the stink bugs have been killed; 0% means none of the stink bugs have been killed.

[9] = test system: green peach aphid (Myzus persicae); test: Myzus persicae spray test; conditions: foliar, 120 h, after 5 days, Chinese cabbage leaf disks; for mortality at 100 g/ha: application rate 100 g/ha, read-out: activity (mortality); for mortality at 500 g/ha: application rate 500 g/ha
Method: Myzus persicae—Spray Test
as §4, with “solvents” for “solvent,”, “and” for “and the concentrate”
Chinese cabbage (Brassica pekinensis) leaf disks infected with all instars of the green peach aphid (Myzus persicae), are sprayed with a preparation of the active ingredient of the desired concentration.
After 5 days mortality in % is determined. 100% means all aphids have been killed and 0% means none of the aphids have been killed.

[10] = test system: larvae of the banded cucumber beetle (Diabrotica balteata); test: Diabrotica balteata spray test; conditions: 168 h, application rate 100 g/ha (=32 μg/well), after 7 days, wheat seeds, read-out: activity (efficacy: seedlings grown)
Outline: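 Wheat seeds germinated 1 day on agar were sprayed with compound diluted in water with 1000 ppm emulsifier, then infested with 10-20 Diabrotica balteata larvae. Efficacy in % scored after 7 days: 100% = seedlings grown as untreated, uninfected control; 0% = no seedlings grown.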

[11] = test system: adult flies Musca domestica strain WHO-N; test: Musca domestica test (MUSCDO surface treatment & contact assay); conditions: surface concentration 20 mg/m^2, exposure 30 minutes, 24 hours after contact, read-out: efficacy (mortality)
Method: Musca domestica Test (MUSCDO Surface Treatment & Contact Assay)
as §1
as §2, with “flies” for “mosquitoes”, “Musca domestica” for “Aedes aegypti”, “WHO-N” for “MONHEIM”
as §3

Row | Compound | mortality at 100 g/ha [1] [%] | pest or weed control at 5 µg/cm2, 500 g/ha [2] [%] | mortality at 4 ppm [3] [%] | pest or weed control at 0.004 mg [4] [%] | pest or weed control at 5 µg/cm2 [5] [%] | mortality at 20 mg/m2 [6] [%] | pest or weed control at 1 µg/cm2, 100 g/ha [7] [%] | pest or weed control at 5 µg/cm2, 500 g/ha [7] [%] | mortality at 100 g/ha [8] [%] | mortality at 100 g/ha [9] [%] | pest or weed control at 32 µg/disc, 100 g/ha [10] [%] | mortality at 500 g/ha [8] [%] | mortality at 500 g/ha [9] [%] | mortality at 20 mg/m2 [11] [%]
1 | C[C@H](NC(=O)c1cc(C(F)(F)F)cc(C(F)(F)F)c1)c1ncnn1-c1ccc(C(=O)N2CC3(COC3)C2)cn1 [Example I-12] | 100 | 100 | 100 | 100 | 90 | 80 to 100 | 100 | 100 | – | – | – | – | – | –
2 | C[C@H](NC(=O)c1cc(C(F)(F)F)cc(C(F)(F)F)c1)c1ncnn1-c1ccc(C(=O)N2CCOC(C)(C)C2)cn1 [Example I-14, N-[(1S)-1-(1-{5-[(2,2-dimethylmorpholin-4-yl)carbonyl]pyridin-2-yl}-1H-1,2,4-triazol-5-yl)ethyl]-3,5-bis(trifluoromethyl)benzamide] | 83 | 100 | 100 | 100 | 100 | – | 100 | 100 | 100 | 90 | 100 | – | – | –
3 | CON(C)C(=O)c1ccc(-n2ncnc2[C@H](C)NC(=O)c2cc(C(F)(F)F)cc(C(F)(F)F)c2)nc1 [Example I-48] | 100 | – | 100 | – | – | 80 to 100 | 100 | 100 | – | – | 100 | – | – | –
4 | CON(C)C(=O)c1ccc(-n2nc(C)nc2[C@H](C)NC(=O)c2cc(C(F)(F)F)cc(C(F)(F)F)c2)nc1 [Example I-49] | 100 | – | 100 | – | – | 80 to 100 | 100 | 100 | – | 90 | 100 | – | – | –
5 | C[C@H](NC(=O)c1cc(C(F)(F)F)cc(C(F)(F)F)c1)c1ncnn1-c1ccc(C(=O)NC2CCOC2)cn1 (stereo partly shown) [Example I-61] | 100 | – | 100 | – | – | 80 to 100 | 90 | 90 | – | – | – | 100 | 90 | –
6 | C[C@H](NC(=O)c1cc(C(F)(F)F)cc(C(F)(F)F)c1)c1ncnn1-c1ccc(C(=O)NC2CS(=O)(=O)C2)cn1 [Example I-63] | – | – | 100 | – | 100 | 80 to 100 | 90 | 90 | – | 90 | 100 | – | 90 | –
7 | C[C@H](NC(=O)c1cc(C(F)(F)F)cc(C(F)(F)F)c1)c1ncnn1-c1ccc(C(=O)N2CCOC[C@@H]2C)cn1 [Example I-67] | 100 | – | 100 | – | 100 | 80 to 100 | 100 | 100 | – | – | 100 | – | – | 80 to 100
8 | Cc1nc([C@H](C)NC(=O)c2cc(C(F)(F)F)cc(C(F)(F)F)c2)n(-c2ccc(C(=O)N3CCOC[C@@H]3C)cn2)n1 [Example I-68] | 100 | – | – | – | 100 | 80 to 100 | 100 | 100 | – | – | 100 | – | – | –
9 | Cc1nc([C@H](C)NC(=O)c2cc(C(F)(F)F)cc(C(F)(F)F)c2)n(-c2ccc(C(=O)N3CCOC[C@H]3C)cn2)n1 [Example I-72] | 100 | 100 | – | – | 100 | – | 100 | 100 | – | – | 100 | – | – | 80 to 100
10 | C[C@@H]1CN(C(=O)c2ccc(-n3nc(C4CC4)nc3[C@H](C)NC(=O)c3cc(C(F)(F)F)cc(C(F)(F)F)c3)nc2)C[C@H](C)O1 [Example I-89] | 100 | 100 | – | – | 100 | – | 100 | 100 | – | – | 100 | 100 | – | 80 to 100
11 | C[C@H](NC(=O)c1cc(C(F)(F)F)cc(C(F)(F)F)c1)c1ncnn1-c1ccc(C(=O)N(C)C2COC2)cn1 [Example I-112] | 100 | – | 70 | – | 90 | 80 to 100 | 100 | 100 | 100 | 100 | – | – | – | 80 to 100
12 | C[C@@H]1CN(C(=O)c2cnc(-n3ncnc3[C@H](C)NC(=O)c3cc(C(F)(F)F)cc(C(F)(F)F)c3)cn2)C[C@H](C)O1 [Example I-143] | 100 | – | – | – | – | – | – | – | – | 90 | 100 | 100 | – | –
